Measurements reported in PMC7367207 (2020).

Tests used:
[1] = system: crystallized SAM/SAH riboswitch (RNA1-26 + RNA2-9) (RNA, riboswitch, 5-bromocytidine at 4 of strand 1) GGUCACAACGGCUUCCUGGCGUGACC/AUUGGAGCA; test: X-ray crystallography; conditions: crystal
[2] = system: SAM/SAH riboswitch G44U (RNA, riboswitch) UACCUGUCACAACGGCUUCCUGGCGUGACGAGGUGACCUCAUUGGAGCAA; test: ITC; conditions: 100 mM K+, 10 mM Mg2+; 40 mM HEPES-K pH 7.0, 298 K
[3] = system: SK209-50 SAM/SAH riboswitch (wt) (RNA, riboswitch) UACCUGUCACAACGGCUUCCUGGCGUGACGAGGUGACCUCAGUGGAGCAA; test: ITC; conditions: 100 mM K+, 10 mM Mg2+; 40 mM HEPES-K pH 7.0, 298 K
[4] = system: U23isoC-modified SAM/SAH riboswitch (RNA, riboswitch, isocytidine at 21 (paper position 23, replaces U)) UACCUGUCACAACGGCUUCCUGGCGUGACGAGGUGACCUCAGUGGAGCAA; test: ITC; conditions: 100 mM K+, 10 mM Mg2+; 40 mM HEPES pH 7.0, 298 K; 40 µM RNA, 1 mM ligand stock (legend; methods: 500 µM)
[5] = system: smFRET SAM/SAH riboswitch with 3' DNA extension on anchor DNA (DNA:RNA, riboswitch, 3' 18 nt of strand 1 and all of strand 2 are DNA) GAUACCUGUCACAACGGCUUCCUGGCGUGACGAGGUGACCUCAGUGGAGCAAACCGCTGCCGTCGCTCCG/CGGAGCGACGGCAGCGGT; test: single-molecule FRET, high-FRET fraction; conditions: 100 mM K+, 2 mM Mg2+; 40 mM HEPES pH 7.5, surface-immobilised RNA, two-state isotherm
[6] = system: G44O2'H-modified SAM/SAH riboswitch (RNA, riboswitch, 2'-deoxyguanosine at 42 (paper position 44)) UACCUGUCACAACGGCUUCCUGGCGUGACGAGGUGACCUCAGUGGAGCAA; test: ITC; conditions: 100 mM K+, 10 mM Mg2+; 40 mM HEPES pH 7.0, 298 K; 40 µM RNA, 1 mM ligand stock (legend; methods: 500 µM)
[7] = system: U23C-modified SAM/SAH riboswitch (RNA, riboswitch) UACCUGUCACAACGGCUUCCCGGCGUGACGAGGUGACCUCAGUGGAGCAA; test: ITC; conditions: 100 mM K+, 10 mM Mg2+; 40 mM HEPES pH 7.0, 298 K; 40 µM RNA, 1 mM ligand stock (legend; methods: 500 µM)
[8] = system: G46N7CH-modified SAM/SAH riboswitch (RNA, riboswitch, 7-deazaguanosine (N7 to CH) at 44 (paper position 46)) UACCUGUCACAACGGCUUCCUGGCGUGACGAGGUGACCUCAGUGGAGCAA; test: ITC; conditions: 100 mM K+, 10 mM Mg2+; 40 mM HEPES pH 7.0, 298 K; 40 µM RNA, 1 mM ligand stock (legend; methods: 500 µM)

Compound	binding [1]	Kd [3] [µM]	Kd [5] [µM]	other results
Nc1ncnc2c1ncn2[C@@H]1O[C@H](COP(=O)(O)O)[C@@H](O)[C@H]1O	yes			
Nc1ncnc2c1ncn2[C@@H]1O[C@H](CO)[C@@H](O)[C@H]1O	yes			
C[S+](CC[C@H](N)C(=O)O)C[C@H]1O[C@@H](n2cnc3c(N)ncnc32)[C@H](O)[C@@H]1O (stereo partly shown)		19 ± 2	10	binding ([1]; also 6YMM in space group P312): yes; Kd [2]: 13 ± 3 µM; binding [4]: no; binding [6]: weak; binding [7]: no; binding [8]: no
Nc1ncnc2c1ncn2[C@@H]1O[C@H](CSCC[C@H](N)C(=O)O)[C@@H](O)[C@H]1O		20 ± 2	6	binding ([1]; 1.7 Å, second SAH only at lattice contact): yes
CSC[C@H]1O[C@@H](n2cnc3c(N)ncnc32)[C@H](O)[C@@H]1O				binding ([1]; PDB title says AMP, ligand record MTA): yes
NCCCSC[C@H]1O[C@@H](n2cnc3c(N)ncnc32)[C@H](O)[C@@H]1O	yes	12 ± 1		
